Data taken from US11932658B2 (BRISTOL-MYERS SQUIBB COMPANY, priority 2016, dated 2024).

Target: T1, PAR4 (Homo sapiens, UniProt Q96RI0)
T1 construct: expressed in transfected cells; host or cells: HEK293 PAR4 Clone 1.2A (BMS Arctic ID 383940)
T1 sequence (Q96RI0 18-385): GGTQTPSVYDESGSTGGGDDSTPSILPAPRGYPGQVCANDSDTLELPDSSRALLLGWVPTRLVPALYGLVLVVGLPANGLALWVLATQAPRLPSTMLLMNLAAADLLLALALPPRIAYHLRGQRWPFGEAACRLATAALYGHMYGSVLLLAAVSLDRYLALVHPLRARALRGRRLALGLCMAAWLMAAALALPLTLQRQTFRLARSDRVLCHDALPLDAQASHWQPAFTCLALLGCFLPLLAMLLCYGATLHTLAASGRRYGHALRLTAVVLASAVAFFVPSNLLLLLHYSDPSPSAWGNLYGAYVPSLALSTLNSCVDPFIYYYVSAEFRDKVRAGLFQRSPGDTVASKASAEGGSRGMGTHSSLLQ
Test: PAR4 FLIPR assay (antagonism of agonist peptide-induced calcium mobilization)
Type: cell-based
Source text: The FLIPR assay is an exemplary in vitro assay for measuring the activity of the PAR4 antagonists of the present invention. In this assay, intracellular calcium mobilization is induced in PAR4 expressing cells by a PAR4 agonist and calcium mobilization is monitored.
HEK293 cells stably expressing PAR4 were generated by a standard method of transfection of human PAR4 (F2R23) cDNA expression vector and selected based on PAR4 protein expression or mRNA expression. […] These cells also express endogenous PAR1 and can elicit calcium signal upon stimulation with PAR1 agonist peptide. Therefore, the same cells were also used to determine selectivity against PAR1 and agonist activity for both receptors. Cells from HEK293 PAR4 Clone 1.2A (BMS Arctic ID 383940) were propagated and used for calcium mobilization studies.
FLIPR-based calcium mobilization assay in HEK293 cells was used to measure PAR4 antagonism, agonism, and selectivity against PAR1. The activity of the PAR4 antagonists of the present invention were tested in PAR4 expressing cells by monitoring H-Ala-Phe(4-F)-Pro-Gly-Trp-Leu-Val-Lys-Asn-Gy-NH2-induced intracellular calcium mobilization. Counter screens for agonist activity and PAR1 antagonist activity were also performed. Briefly, PAR1/PAR4-expressing HEK293 cells were grown in DMEM (Life Technology, Grand Island, NY) containing 10% heat-inactivated FBS, 1% Penicillin-Streptomycin, 10 μg/mL blasticidin, and 100 μg/mL Zeocin at 37° C. with 5% CO2. Cells were plated overnight prior to the experiment in a black 384-well Purecoat Amine clear bottom plate (Becton Dickinson Biosciences, San Jose, CA) at 10,000 cells/well in 30 μL growth medium and incubated in a humidified chamber at 37° C. with 5% CO2 overnight. Prior to compound addition, the cell medium was replaced with 40 μL of 1× calcium and magnesium-containing Hank's Balanced Saline Solution (HBSS) (with 20 mM HEPES) and 1:1000 diluted fluorescent calcium indicator (Codex Biosolutions, Gaithersburg, MD). After a 30 minute incubation period at 37° C. and a further 30 minute incubation and equilibration period at room temperature, 20 μL test compound (diluted in 1×HBSS buffer) was added at various concentrations at 0.17% dimethyl sulfoxide (DMSO) final concentration. Changes in fluorescence intensity were measured using a Functional Drug Screening System (FDSS, Hamamatsu, Japan) to determine agonist activities. The cells were then incubated for 30 minutes at room temperature followed by addition of 20 μL of agonist peptide for antagonist activity measurement. […] Compound potency was derived from 11-point concentration-response curves.

SMILES | IC50
COc1cnc2c(-c3nc4c(Cl)cc5c(c4s3)OC[C@H](COC(=O)Nc3ccc4ncsc4c3)O5)cc(C)cc2n1 [Example 40, (R)-(4-chloro-2-(2-methoxy-7-methylquinoxalin-5-yl)-7,8-dihydro-[1,4]dioxino[2′,3′:3,4]benzo[1,2-d]thiazol-7-yl)methyl benzo[d]thiazol-6-ylcarbamate] | 97 nM
COc1cnc2c(-c3nc4cc(F)c5c(c4s3)C[C@@](C)(CNC(=O)OCC(C)C)O5)cc(C)cc2n1 [Example 241, (S)-isobutyl ((5-fluoro-2-(2-methoxy-7-methylquinoxalin-5-yl)-7-methyl-7,8-dihydrobenzofuro[5,4-d]thiazol-7-yl)methyl)carbamate] | 8.6 nM
COc1cnc2c(-c3nc4ccc5c(c4s3)OC[C@H](COC(=O)Nc3cnc(C)nc3)O5)cc(CF)cc2c1 [Example 276, (R)-(2-(6-(fluoromethyl)-3-methoxyquinolin-8-yl)-7,8-dihydro-[1,4]dioxino[2′,3′:3,4]benzo[1,2-d]thiazol-7-yl)methyl (2-methylpyrimidin-5-yl)carbamate] | 140 nM
COc1cnc2c(-c3nc4ccc5c(c4s3)C[C@@H](COC(=O)Nc3cnc(C)nc3)O5)cc(C)cc2n1 [Example 150, (S)-(2-(2-methoxy-7-methylquinoxalin-5-yl)-7,8-dihydrobenzofuro[5,4-d]thiazol-7-yl)me thyl (2-methylpyrimidin-5-yl)carbamate] | 5.4 nM
COc1cnc2c(-c3nc4ccc5c(c4s3)OC[C@H](COC(=O)Nc3cnc(C)nc3)O5)cc(C)cc2n1 [Example 103, (R)-(2-(2-methoxy-7-methylquinoxalin-5-yl)-7,8-dihydro-[1,4]dioxino [2′,3′:3,4]benzo[1,2-d]thiazol-7-yl)methyl (2-methylpyrimidin-5-yl)carbamate] | 2.8 nM
COc1cnc2c(-c3nc4ccc5c(c4s3)C[C@@H](CNC(=O)O[C@H]3CCOC3)O5)cc(C)cc2n1 [Example 236, (S)-tetrahydrofuran-3-yl (((S)-2-(2-methoxy-7-methylquinoxalin-5-yl)-7,8-dihydrobenzofuro[5,4-d]thiazol-7-yl)methyl)carbamate] | 2.7 nM
COc1cnc2c(-c3nc4cc(F)c5c(c4s3)C[C@H](COC(=O)Nc3ccc4c(c3)C(=O)NC4)O5)cc(C)cc2n1 [Example 178, (R)-(5-fluoro-2-(2-methoxy-7-methylquinoxalin-5-yl)-7,8-dihydrobenzofuro[5,4-d]thiazo 1-7-yl)methyl (3-oxoisoindolin-5-yl)carbamate] | 2.3 nM
COc1cnc2c(-c3nc4cc(F)c5c(c4s3)C[C@H](CNC(=O)Cc3ccccc3)O5)cc(C)cc2n1 [Example 217, (R)-N-((5-fluoro-2-(2-methoxy-7-methylquinoxalin-5-yl)-7,8-dihydrobenzofuro[5,4-d]thiazol-7-yl)methyl)-2-phenylacetamide] | 120 nM
COc1cnc2c(-c3nc4cc(F)c5c(c4s3)C[C@@H](CNC(=O)Nc3ccccc3)O5)cc(C)cc2n1 [Example 248, (S)-1-((5-fluoro-2-(2-methoxy-7-methylquinoxalin-5-yl)-7,8-dihydrobenzofuro[5,4-d]thiazol-7-yl)methyl)-3-phenylurea] | 7 nM
COc1ccc(NC(=O)OC[C@H]2COc3c(cc(C)c4nc(-c5cc(C#N)cc6nc(OC)cnc56)sc34)O2)cn1 [Example 94, (R)-(2-(7-cyano-2-methoxyquinoxalin-5-yl)-4-methyl-7,8-dihydro-[1,4]dioxino[2′,3′:3,4]benzo[1,2-d]thiazol-7-yl)methyl (6-methoxypyridin-3-yl)carbamate] | 29 nM
COc1cc(NC(=O)OC[C@H]2Cc3c(c(F)cc4nc(-c5cc(C)cc6nc(OC)cnc56)sc34)O2)ccn1 [Example 163, (R)-(5-fluoro-2-(2-methoxy-7-methylquinoxalin-5-yl)-7,8-dihydrobenzofuro[5,4-d]thiazo 1-7-yl)methyl (2-methoxypyridin-4-yl)carbamate] | 160 nM
COc1cnc2c(-c3nc4cc(F)c5c(c4s3)OC[C@H](CO)O5)cc(C)cc2n1 [Example 291, (S)-(5-fluoro-2-(2-methoxy-7-methylquinoxalin-5-yl)-7,8-dihydro-[1,4]dioxino[2′,3′:3,4]benzo[1,2-d]thiazol-7-yl)methanol] | 59 nM

The next molecules have a lower IC50 than those just listed; values first:

IC50 | SMILES
2 nM | COc1ccc(NC(=O)OCC2COc3c(cc(C)c4nc(-c5cc(CO)cc6nc(OC)cnc56)sc34)O2)cn1 (stereo not shown) [Example 87, (2-(7-(hydroxymethyl)-2-methoxyquinoxalin-5-yl)-4-methyl-7,8-dihydro-[1,4]dioxino[2′,3′:3,4]benzo[1,2-d]thiazol-7-yl)methyl (6-methoxypyridin-3-yl)carbamate]
1.9 nM | COc1cnc2c(-c3nc4c(C(O)C5(C(F)(F)F)CCC5)cc5c(c4s3)OCCO5)cc(C)cc2n1 (single isomer, unassigned) [Example 265, (2-(2-methoxy-7-methylquinoxalin-5-yl)-7,8-dihydro-[1,4]dioxino[2′,3′:3,4]benzo[1,2-d]thiazol-4-yl)(1-(trifluoromethyl)cyclobutyl)methanol]
1.9 nM | COc1ccc(NC(=O)OC[C@H]2COc3c(ccc4nc(-c5cc(C)cc6nc(OC)cnc56)sc34)O2)cn1 [Example 104, (R)-(2-(2-methoxy-7-methylquinoxalin-5-yl)-7,8-dihydro-[1,4]dioxino[2′,3′:3,4]benzo[1,2-d]thiazol-7-yl)methyl (6-methoxypyridin-3-yl)carbamate]
1.8 nM | COc1cnc2c(-c3nc4cc(F)c5c(c4s3)C[C@H](COC(=O)Nc3cnc(C)nc3)O5)cc(C)cc2n1 [Example 145, (R)-(5-fluoro-2-(2-methoxy-7-methylquinoxalin-5-yl)-7,8-dihydrobenzofuro[5,4-d]thiazo 1-7-yl)methyl (2-methylpyrimidin-5-yl)carbamate]
1.6 nM | C=Cc1ccc(NC(=O)OC[C@H]2COc3c(ccc4nc(-c5cc(C)cc6nc(OC)cnc56)sc34)O2)cn1 [Example 110, (R)-(2-(2-methoxy-7-methylquinoxalin-5-yl)-7,8-dihydro-[1,4]dioxino[2′,3′:3,4]benzo[1,2-d]thiazol-7-yl)methyl (6-vinylpyridin-3-yl)carbamate]
1.5 nM | COc1cnc2c(-c3nc4ccc5c(c4s3)C[C@@H](CO)O5)cc(C)cc2n1 [Example 149, (S)-(2-(2-methoxy-7-methylquinoxalin-5-yl)-7,8-dihydrobenzofuro[5,4-d]thiazol-7-yl)me thanol]
1.3 nM | COc1cnc2c(-c3nc4cc(F)c5c(c4s3)C[C@H](COC(=O)Nc3cncc(C(N)=O)c3)O5)cc(C)cc2n1 [Example 205, (R)-(5-fluoro-2-(2-methoxy-7-methylquinoxalin-5-yl)-7,8-dihydrobenzofuro[5,4-d]thiazo 1-7-yl)methyl (5-carbamoylpyridin-3-yl)carbamate]
1.3 nM | COc1cnc2c(-c3nc4cc(F)c5c(c4s3)C[C@H](COC(=O)Nc3cnc(OCCO)nc3)O5)cc(C)cc2n1 [Example 173, (R)-(5-fluoro-2-(2-methoxy-7-methylquinoxalin-5-yl)-7,8-dihydrobenzofuro[5,4-d]thiazo 1-7-yl)methyl (2-(2-hydroxyethoxy)pyrimidin-5-yl)carbamate]
0.9 nM | COc1cnc2c(-c3nc4c(Cl)cc5c(c4s3)OC[C@H](COC(=O)Nc3cccnc3)O5)cc(C)cc2n1 [Example 31, (R)-(4-chloro-2-(2-methoxy-7-methylquinoxalin-5-yl)-7,8-dihydro-[1,4]dioxino[2′,3′:3,4]benzo[1,2-d]thiazol-7-yl)methyl pyridin-3-ylcarbamate]
0.6 nM | COc1cnc2c(-c3nc4cc(F)c5c(c4s3)C[C@H](COC(=O)Nc3ccnc(C)c3)O5)cc(C)cc2n1 [Example 160, (R)-(5-fluoro-2-(2-methoxy-7-methylquinoxalin-5-yl)-7,8-dihydrobenzofuro[5,4-d]thiazol-7-yl)methyl (2-methylpyridin-4-yl)carbamate]
